Laboratory results reported in the NIST ThermoML archive (doi:10.1021/acs.jced.5b00694).
± gives the expanded uncertainty stated by the source. One block for each molecule: values may come before it.

What was measured:
[1] = 297.85 K; 101 kPa; Liquid; Cone and plate viscometry
[2] = xn = mol fraction of the nth substance listed; settings: 101 kPa, Liquid; for viscosity: 297.85 K, Cone and plate viscometry; for mass density: 298.15 K, Vibrating tube method

viscosity [1]: 0.9 ± 0.02 mPa·s
Structure (SMILES): O [water]

viscosity ([2]; x2 = 0.25): 356 ± 43 mPa·s
viscosity ([2]; x2 = 0.5): 146 ± 16 mPa·s
viscosity ([2]; x2 = 0.6): 97 ± 10 mPa·s
viscosity ([2]; x2 = 0.74): 48 ± 4.9 mPa·s
viscosity ([2]; x2 = 0.8): 35.3 ± 3.6 mPa·s
viscosity ([2]; x2 = 0.91): 14.4 ± 1.4 mPa·s
mass density ([2]; x2 = 0.25): 944 ± 1.2 kg/m3
mass density ([2]; x2 = 0.32): 945.2 ± 1.1 kg/m3
mass density ([2]; x2 = 0.5): 948 ± 1.2 kg/m3
mass density ([2]; x2 = 0.6): 950.4 ± 1.4 kg/m3
mass density ([2]; x2 = 0.74): 955.5 ± 1 kg/m3
mass density ([2]; x2 = 0.8): 959.2 ± 0.9 kg/m3
mass density ([2]; x2 = 0.91): 974.1 ± 0.7 kg/m3
Structure (SMILES): CCCC[P+](CCCC)(CCCC)CCCC.O=C[O-] [tetrabutylphosphonium formate] + O

viscosity ([2]; x1 = 1): 0.9 ± 0.09 mPa·s
mass density ([2]; x1 = 1): 996.8 ± 0.6 kg/m3
Structure (SMILES): O [water] + CCCC[P+](CCCC)(CCCC)CCCC.O=C[O-]
